{"source": "patent US11242335B2", "about": "“Fluorine-substituted indazole compounds and uses thereof” (SUNSHINE LAKE PHARMA CO., LTD., priority 2017, dated 2022)", "key": {"[1]": {"assay": "Pharmacokinetics in male SD rats after intravenous and oral administration", "format": "in vivo", "description": "Preparation of test compound solution: The test compound was formulated with 5% dimethylsulfoxide, 5% Solutol HS 15 and 90% physiological saline to give solution, which was used for oral and intravenous administration.\nMale SD rats weighing 190-250 g were randomly divided into two groups, each group had three members; one group received test compound at a dose of 1.0 mg/kg by intravenous injection, the other group received test compound at a dose of 2.5 or 5.0 mg/kg by oral. After dosing, blood samples were collected at time points of 0.0833, 0.25, 0.5, 1.0, 2.0, 4.0, 7.0 and 24 h. Standard curve was plotted based on concentrations of the samples in a suitable range, the concentrations of test compounds in plasma samples were determined by using AB SCIEX API4000 LC-MS/MS in MRM mode. Pharmacokinetic parameters were calculated according to drug concentration-time curve using a noncompartmental method by WinNonLin 6.3 software."}, "[2]": {"target": "T1, hERG potassium channel (Homo sapiens, UniProt Q12809)", "T1 construct": "expressed in transfected cells; host or cells: HEK293", "T1 sequence (Q12809 whole entry)": "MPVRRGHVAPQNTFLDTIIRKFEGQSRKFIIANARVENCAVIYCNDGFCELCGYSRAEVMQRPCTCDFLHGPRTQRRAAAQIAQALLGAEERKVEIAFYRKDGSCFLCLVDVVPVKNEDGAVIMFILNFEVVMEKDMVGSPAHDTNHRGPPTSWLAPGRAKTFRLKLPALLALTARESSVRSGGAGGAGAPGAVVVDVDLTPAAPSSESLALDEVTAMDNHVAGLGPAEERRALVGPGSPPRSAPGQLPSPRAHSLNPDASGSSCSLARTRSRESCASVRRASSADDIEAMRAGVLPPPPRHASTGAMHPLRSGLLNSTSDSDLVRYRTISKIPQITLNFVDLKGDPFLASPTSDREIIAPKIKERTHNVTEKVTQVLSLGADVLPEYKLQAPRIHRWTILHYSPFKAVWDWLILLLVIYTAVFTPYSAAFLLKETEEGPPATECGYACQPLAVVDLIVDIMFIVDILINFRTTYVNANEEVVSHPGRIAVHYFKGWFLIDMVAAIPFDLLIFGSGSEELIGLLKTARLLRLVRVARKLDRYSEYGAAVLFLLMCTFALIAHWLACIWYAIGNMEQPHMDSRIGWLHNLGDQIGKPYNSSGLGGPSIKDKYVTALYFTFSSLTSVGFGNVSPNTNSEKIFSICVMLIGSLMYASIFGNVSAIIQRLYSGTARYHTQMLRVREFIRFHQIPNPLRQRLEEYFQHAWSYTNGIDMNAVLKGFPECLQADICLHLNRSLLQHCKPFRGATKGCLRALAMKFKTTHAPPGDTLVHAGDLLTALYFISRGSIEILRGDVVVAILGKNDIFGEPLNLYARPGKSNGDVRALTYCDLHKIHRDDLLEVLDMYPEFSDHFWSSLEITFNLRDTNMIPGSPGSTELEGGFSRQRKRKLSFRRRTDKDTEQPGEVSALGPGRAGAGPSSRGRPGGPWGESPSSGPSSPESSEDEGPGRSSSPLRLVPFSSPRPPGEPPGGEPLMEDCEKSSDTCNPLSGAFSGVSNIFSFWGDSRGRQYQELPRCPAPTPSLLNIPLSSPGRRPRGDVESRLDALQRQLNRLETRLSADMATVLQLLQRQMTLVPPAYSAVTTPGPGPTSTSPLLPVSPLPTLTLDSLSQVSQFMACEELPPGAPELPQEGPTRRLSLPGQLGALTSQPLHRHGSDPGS", "assay": "Inhibition of hERG potassium channel, manual patch clamp in HEK293 cells", "format": "cell-based", "settings": "hERG tail current; HEK293 cells overexpressing hERG; whole cell patch clamp; 22-24° C.", "description": "Each compound was weighed and dissolved in DMSO and diluted with DMSO to a serial solution (30, 10, 3.3, 1.1, 0.37 mM). The above serial solutions were diluted to 1000-fold with the extracellular fluid to prepare test solutions (final concentration was 30, 10, 3.3, 1.1, 0.37 μM respectively).\nThe HEK293 cells that overexpressed the hERG potassium channel were cultured in a 37° C., 5% CO2 incubator, and the culture medium contained DMEM, 15% fetal bovine serum, and 1% penicillin-streptomycin. When the cell density reached 80% of the culture plate, the cells were digested with trypsin/EDTA and transferred to a centrifuge tube, centrifuged at 1000 rpm for 3 minutes, then supernatant was discarded, and the cell culture medium was added. The cells were mixed uniformly by gently blowing and beating. […]\nThe whole cell recording mode was used to record the channel current in the experiment. Firstly, the extracellular fluid was perfused (approximately 2 mL per minute) and the data were continuous recorded, and the current was kept steady (the current decay was less than 5% in 5 minutes). […] The extracellular fluid containing the test compound was then perfused and the data were continuous recorded until the compound's inhibitory effect on the hERG current reached a steady state, at this time point the peak value of tail current was the current value after dosing. […]"}}, "data": [{"smiles": "COC(=O)Nc1c(N)nc(-c2nn(Cc3ccccc3F)c3c(F)cccc23)nc1N", "note": "[Example 10, methyl (4,6-diamino-2-(7-fluoro-1-(2-fluorobenzyl)-1H-indazol-3-yl)pyrimidin-5-yl)carbamate]", "values": [{"measurement": "F", "setting": "[1]; po 5 mg/kg versus iv 1 mg/kg", "value": 99.6, "unit": "%"}, {"measurement": "AUC(0-t)", "setting": "[1]; rat, plasma, iv, 1 mg/kg", "value": 7520, "unit": "ng·h/mL"}, {"measurement": "Cmax", "setting": "[1]; rat, plasma, iv, 1 mg/kg", "value": 1500, "unit": "ng/mL"}, {"measurement": "Tmax", "setting": "[1]; rat, plasma, iv, 1 mg/kg", "value": 0.083, "unit": "h"}, {"measurement": "clearance", "setting": "[1]; rat, plasma, iv, 1 mg/kg", "value": 2.21, "unit": "mL/min/kg"}, {"measurement": "half-life", "setting": "[1]; rat, plasma, iv, 1 mg/kg", "value": 3.54, "unit": "h"}, {"measurement": "Vd", "setting": "[1]; rat, plasma, iv, 1 mg/kg, read-out: Vss", "value": 0.63, "unit": "L/kg"}, {"measurement": "AUC(0-t)", "setting": "[1]; rat, plasma, po, 5 mg/kg", "value": 37500, "unit": "ng·h/mL"}, {"measurement": "Cmax", "setting": "[1]; rat, plasma, po, 5 mg/kg", "value": 3070, "unit": "ng/mL"}, {"measurement": "Tmax", "setting": "[1]; rat, plasma, po, 5 mg/kg", "value": 2, "unit": "h"}, {"measurement": "half-life", "setting": "[1]; rat, plasma, po, 5 mg/kg", "value": 4.34, "unit": "h"}, {"measurement": "IC50", "setting": "[2]", "value": 19.9, "unit": "µM"}]}]}
